Measured values from patent publication US9833497B2, “Human originated EGF domain proteins and use of the same” (CHENGDU SOURCEBIO LIMITED-LIABILITY COMPANY, priority 2013, dated 2017).

Tests used:
Format in all cases: cell-based
Proteus vulgaris = assay: MIC against Gram-negative bacteria: Proteus vulgaris
Protocol: (§1) 1. Gram-negative bacteria, such as E. coli BL21, Pseudomonas aeruginosa, Klebsiella pneumonia, Enterobacter cloacae, Aeromonas hydrophila, Citrobacter diversus, Moraxella catarrhalis, Proteus mirabilis, Proteus vulgaris, Serratia marcescens, etc were streaked on solid LB medium and cultured respectively. Then, typical clones were picked, inoculated into common liquid LB medium respectively, and cultured at 37° C. with shaking at 185 rpm until the McFarland specific turbidity was 0.5. The bacterial culture of each of Gram-negative bacteria was centrifuged at 4000×g for 3 min, the supernatant was discarded, and the thalli were resuspended with fresh LB medium.
(§2) 2. The above-mentioned bacterial suspensions were diluted and inoculated into 96-well plates with the final concentration of the bacterial suspension being 5×10^5 CFU/mL per well.
(§3) 3. Each of the purified human-originated EGF domain proteins (PRT1 to PRT1498 in Table 1) was added to each of the above wells and subjected to two-fold serial dilution in concentration. Three parallel wells were set up for each concentration in the gradient.
(§4) 4. The above-mentioned 96-well plates were placed and cultured at 37° C. in shaking incubator shaking at 175 rpm. […] The minimal inhibitory concentration MIC is defined as the lowest concentration of the recombinant protein at which there is no growth of the bacteria.

Enterobacter cloacae = assay: MIC against Gram-negative bacteria: Enterobacter cloacae
Protocol: as §1, §2, §3, §4

E. coli DH5α = assay: Antibacterial activity: MIC and growth curve against E. coli DH5α in 96-well plate; conditions: minimal inhibitory concentration against E. coli DH5α; 96-well plate, 5×10^5 CFU/mL, 37° C., judged after 8 h
Protocol: 1. E. coli DH5α was exemplified. E. coli DH5α was streaked and cultured on LB solid medium. Then, a typical clone was picked and inoculated into common LB liquid medium, cultured at 37° C. with shaking at 185 rpm until the logarithmic growth phase was reached (OD600 of about 0.5). The bacterial culture was centrifuged at 4000×g for 3 min, the supernatant was discarded, and the thalli were resuspended with fresh LB medium.
2. The above-mentioned bacterial suspension was diluted and inoculated into a 96-well plate with the total volume of 100 μL per well and a bacterial count of 5×10^5 CFU/mL.
3. The recombinant protein hF VII-EGF1 was added to the above-mentioned wells with the final protein concentration in the well of the highest protein concentration being 50 μg/mL. Basing on this final concentration, a two-fold serial dilution was performed till a protein concentration gradient consisting of 50, 25, and 12.5 μg/mL was set up. Three parallel wells were set up for each concentration in the gradient.
as §4, with “plate was” for “plates were”, “rpm. Samples were taken every 30 min, the absorbance values were determined at 600 nm wavelength under a ultra violet spectrophotometer, and an inhibition curve was plotted.” for “rpm.”
According to the experimental procedures in Example 14, the minimal inhibitory concentrations (MIC, μg/mL) of the other human-originated EGF domain proteins (PRT2 to PRT1498 in Table 1) for E. coli DH5α were determined.

Proteus mirabilis = assay: MIC against Gram-negative bacteria: Proteus mirabilis
Protocol: as §1, §2, §3, §4

Citrobacter diversus = assay: MIC against Gram-negative bacteria: Citrobacter diversus
Protocol: as §1, §2, §3, §4

Pseudomonas aeruginosa = assay: MIC against Gram-negative bacteria: Pseudomonas aeruginosa
Protocol: as §1, §2, §3, §4

Moraxella catarrhalis = assay: MIC against Gram-negative bacteria: Moraxella catarrhalis
Protocol: as §1, §2, §3, §4

Aeromonas hydrophila = assay: MIC against Gram-negative bacteria: Aeromonas hydrophila
Protocol: as §1, §2, §3, §4

E. coli BL21 = assay: MIC against Gram-negative bacteria: E. coli BL21; conditions: E. coli BL21
Protocol: as §1, §2, §3, §4

Serratia marcescens = assay: MIC against Gram-negative bacteria: Serratia marcescens
Protocol: as §1, §2, §3, §4

Klebsiella pneumonia = assay: MIC against Gram-negative bacteria: Klebsiella pneumonia
Protocol: as §1, §2, §3, §4

[1] = Proteus vulgaris, 96-well plate, 5×10^5 CFU/mL, 37° C., 10 h
[2] = Enterobacter cloacae, 96-well plate, 5×10^5 CFU/mL, 37° C., 10 h
[3] = Proteus mirabilis, 96-well plate, 5×10^5 CFU/mL, 37° C., 10 h
[4] = Citrobacter diversus, 96-well plate, 5×10^5 CFU/mL, 37° C., 10 h
[5] = Pseudomonas aeruginosa, 96-well plate, 5×10^5 CFU/mL, 37° C., 10 h
[6] = Moraxella catarrhalis, 96-well plate, 5×10^5 CFU/mL, 37° C., 10 h
[7] = Aeromonas hydrophila, 96-well plate, 5×10^5 CFU/mL, 37° C., 10 h
[8] = 96-well plate, 5×10^5 CFU/mL, 37° C., 10 h
[9] = Serratia marcescens, 96-well plate, 5×10^5 CFU/mL, 37° C., 10 h
[10] = Klebsiella pneumonia, 96-well plate, 5×10^5 CFU/mL, 37° C., 10 h
[11] = P. vulgaris, 10 h cultivation at 37° C.
[12] = E. cloacae, 10 h cultivation at 37° C.
[13] = P. mirabilis, 10 h cultivation at 37° C.
[14] = C. diversus, 10 h cultivation at 37° C.
[15] = P. aeruginosa, 10 h cultivation at 37° C.
[16] = M. catarrhalis, 10 h cultivation at 37° C.
[17] = A. hydrophila, 10 h cultivation at 37° C.
[18] = S. marcescens, 10 h cultivation at 37° C.
[19] = K. pneumonia, 10 h cultivation at 37° C.

PRT124 (ITDRCSPNMCEHDGRCYQSWDDFICYCELTGYKGETCH; listed as Homo sapiens)
MIC (μg/mL) P. vulgaris (Proteus vulgaris; [1]): 12.5 µg/mL | MIC (μg/mL) E. cloacae (Enterobacter cloacae; [2]): 12.5 µg/mL | MIC (E. coli DH5α): 12.5 µg/mL | MIC (μg/mL) P. mirabilis (Proteus mirabilis; [3]): 12.5 µg/mL | MIC (μg/mL) C. diversus (Citrobacter diversus; [4]): 12.5 µg/mL | MIC (μg/mL) P. aeruginosa (Pseudomonas aeruginosa; [5]): 12.5 µg/mL | MIC (μg/mL) M. catarrhalis (Moraxella catarrhalis; [6]): 12.5 µg/mL | MIC (μg/mL) A. hydrophila (Aeromonas hydrophila; [7]): 12.5 µg/mL | MIC (μg/mL) E. coli BL21 (E. coli BL21; [8]): 50 µg/mL | MIC (μg/mL) S. marcescens (Serratia marcescens; [9]): 12.5 µg/mL | MIC (μg/mL) K. pneumonia (Klebsiella pneumonia; [10]): 50 µg/mL

PRT924 (DVDECAMANSNPCEHAGKCVNTDGAFHCECLKGYAGPRCE; listed as Homo sapiens)
MIC (Proteus vulgaris; [11]): 12.5 µg/mL | MIC (Enterobacter cloacae; [12]): 25 µg/mL | MIC (E. coli DH5α): 12.5 µg/mL | MIC (Proteus mirabilis; [13]): 25 µg/mL | MIC (Citrobacter diversus; [14]): 12.5 µg/mL | MIC (Pseudomonas aeruginosa; [15]): 50 µg/mL | MIC (Moraxella catarrhalis; [16]): 50 µg/mL | MIC (Aeromonas hydrophila; [17]): 50 µg/mL | MIC (E. coli BL21; 10 h cultivation at 37° C.): 25 µg/mL | MIC (Serratia marcescens; [18]): 50 µg/mL | MIC (Klebsiella pneumonia; [19]): 12.5 µg/mL

PRT758 (RVDHCAQQDHGCEQLCLNTEDSFVCQCSEGFLINEDLKTCS; listed as Homo sapiens)
MIC (μg/mL) P. vulgaris (Proteus vulgaris; P. vulgaris, 10 h cultivation at 37° C., 5×10^5 CFU/mL): 12.5 µg/mL | MIC (μg/mL) E. cloacae (Enterobacter cloacae; E. cloacae, 10 h cultivation at 37° C., 5×10^5 CFU/mL): 25 µg/mL | MIC (E. coli DH5α): 12.5 µg/mL | MIC (μg/mL) P. mirabilis (Proteus mirabilis; P. mirabilis, 10 h cultivation at 37° C., 5×10^5 CFU/mL): 25 µg/mL | MIC (μg/mL) C. diversus (Citrobacter diversus; C. diversus, 10 h cultivation at 37° C., 5×10^5 CFU/mL): 25 µg/mL | MIC (μg/mL) P. aeruginosa (Pseudomonas aeruginosa; P. aeruginosa, 10 h cultivation at 37° C., 5×10^5 CFU/mL): 50 µg/mL | MIC (μg/mL) M. catarrhalis (Moraxella catarrhalis; M. catarrhalis, 10 h cultivation at 37° C., 5×10^5 CFU/mL): 12.5 µg/mL | MIC (μg/mL) A. hydrophila (Aeromonas hydrophila; A. hydrophila, 10 h cultivation at 37° C., 5×10^5 CFU/mL): 50 µg/mL | MIC (μg/mL) E. coli BL21 (E. coli BL21; 10 h cultivation at 37° C., 5×10^5 CFU/mL): 25 µg/mL | MIC (μg/mL) S. marcescens (Serratia marcescens; S. marcescens, 10 h cultivation at 37° C., 5×10^5 CFU/mL): 12.5 µg/mL | MIC (μg/mL) K. pneumonia (Klebsiella pneumonia; K. pneumonia, 10 h cultivation at 37° C., 5×10^5 CFU/mL): 50 µg/mL

PRT1277 (ETCAVNNGGCDSKCHDAATGVHCTCPVGFMLQPDRKTCK; listed as Homo sapiens)
MIC against P. vulgaris (Proteus vulgaris; [1]): 25 µg/mL | MIC against E. cloacae (Enterobacter cloacae; [2]): 12.5 µg/mL | MIC (E. coli DH5α): 12.5 µg/mL | MIC against P. mirabilis (Proteus mirabilis; [3]): 12.5 µg/mL | MIC against C. diversus (Citrobacter diversus; [4]): 12.5 µg/mL | MIC against P. aeruginosa (Pseudomonas aeruginosa; [5]): 12.5 µg/mL | MIC against M. catarrhalis (Moraxella catarrhalis; [6]): 25 µg/mL | MIC against A. hydrophila (Aeromonas hydrophila; [7]): 50 µg/mL | MIC against E. coli BL21 (E. coli BL21; [8]): 50 µg/mL | MIC against S. marcescens (Serratia marcescens; [9]): 12.5 µg/mL | MIC against K. pneumonia (Klebsiella pneumonia; [10]): 50 µg/mL

PRT949 (FVDVCPQMPCLNGGTCAVASNMPDGFICRCPPGFSGARCQ; listed as Homo sapiens)
MIC (Proteus vulgaris; [11]): 12.5 µg/mL | MIC (Enterobacter cloacae; [12]): 12.5 µg/mL | MIC (E. coli DH5α): 12.5 µg/mL | MIC (Proteus mirabilis; [13]): 50 µg/mL | MIC (Citrobacter diversus; [14]): 12.5 µg/mL | MIC (Pseudomonas aeruginosa; [15]): 50 µg/mL | MIC (Moraxella catarrhalis; [16]): 25 µg/mL | MIC (Aeromonas hydrophila; [17]): 50 µg/mL | MIC (E. coli BL21; 10 h cultivation at 37° C.): 25 µg/mL | MIC (Serratia marcescens; [18]): 25 µg/mL | MIC (Klebsiella pneumonia; [19]): 25 µg/mL
